This passage reports IC50 results from BindingDB's records for patent US8497376 (Janssen Pharmaceutica, 2013).

The assay has as its target Macrophage colony-stimulating factor 1 receptor (Homo sapiens, UniProt P07333). Description: Fluorescence Polarization Competition Assay. The following applies: pH 7.5. The source says:
An autophosphorylation, fluroescence polarization competition immunoassay was used to determine the potency for c-fms inhibition.

SMILES strings stand for the structures.

As usually defined, the IC50 is the concentration needed to halve the response being measured.

Sequence of Macrophage colony-stimulating factor 1 receptor (P07333 whole entry): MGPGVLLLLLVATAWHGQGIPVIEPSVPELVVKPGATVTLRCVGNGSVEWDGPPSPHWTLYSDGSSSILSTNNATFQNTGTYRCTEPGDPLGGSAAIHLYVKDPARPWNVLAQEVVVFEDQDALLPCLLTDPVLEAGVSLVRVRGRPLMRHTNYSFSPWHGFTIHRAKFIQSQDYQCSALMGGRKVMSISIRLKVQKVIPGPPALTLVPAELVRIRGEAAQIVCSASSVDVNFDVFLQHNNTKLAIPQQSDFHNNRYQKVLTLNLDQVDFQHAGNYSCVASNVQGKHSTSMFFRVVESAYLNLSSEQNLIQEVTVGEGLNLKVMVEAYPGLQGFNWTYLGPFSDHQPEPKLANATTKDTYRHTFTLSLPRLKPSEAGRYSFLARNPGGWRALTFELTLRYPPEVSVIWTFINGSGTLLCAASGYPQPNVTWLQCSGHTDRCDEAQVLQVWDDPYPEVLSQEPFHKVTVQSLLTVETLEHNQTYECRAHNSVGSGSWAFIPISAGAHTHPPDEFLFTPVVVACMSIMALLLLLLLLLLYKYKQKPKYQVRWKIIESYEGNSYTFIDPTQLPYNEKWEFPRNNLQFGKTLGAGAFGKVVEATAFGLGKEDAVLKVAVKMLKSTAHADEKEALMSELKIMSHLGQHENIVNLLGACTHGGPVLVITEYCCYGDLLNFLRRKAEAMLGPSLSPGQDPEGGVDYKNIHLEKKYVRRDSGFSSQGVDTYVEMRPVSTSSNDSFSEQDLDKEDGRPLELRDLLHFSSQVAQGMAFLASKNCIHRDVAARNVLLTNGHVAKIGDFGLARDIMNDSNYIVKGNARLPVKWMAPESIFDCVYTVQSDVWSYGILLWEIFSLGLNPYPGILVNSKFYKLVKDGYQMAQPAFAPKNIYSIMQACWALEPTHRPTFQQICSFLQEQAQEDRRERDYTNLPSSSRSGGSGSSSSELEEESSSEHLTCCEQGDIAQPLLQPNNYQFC

In the case of `CC1(C)CC=C(c2cc([C@]3(O)C[C@@]4(CO)C=C[C@@](CO)(C3)O4)ccc2NC(=O)c2ncc(C#N)[nH]2)CC1` [US8497376, 2], the IC50 stood at 0.43 nM.
